Measurements: patent US7829080B2, “Stabilization method of reduced coenzyme Q10” (Kaneka Corporation, priority 2006, dated 2010)

Columns and labels:
[1] = Plasma total coenzyme Q after 14-day oral administration (Example 3); format: in vivo, Crj:CD (SD) rats; details: male and female rats, 600 mg/kg oral in corn oil once a day for 14 days, 24 hr after final administration; compared to the reduced coenzyme Q10 administration group
Experimental: A first group was used as a control group, and corn oil (3 ml/kg) was orally administered once a day for 14 days. […] At 24 hr after the final administration, blood samples were collected to give plasma samples. Using HPLC, the concentration of coenzyme Q in the obtained plasma was measured. The results are shown in the bar graph of FIG. 1.

[2] = Oral absorbability test (Example 4); format: in vivo, Crj:CD (SD) rats; details: male rats, 25 mg/ml soy bean oil solution at 4.0 ml/kg, 2 hr from administration
Experimental: Crj:CD (SD) rats (about 77-week-old, 10 male rats) were prepared. Reduced coenzyme Q10 was orally administered to 5 of them, and a mixture of reduced coenzyme Q10 and reduced coenzyme Q11 (containing 0.1% of reduced coenzyme Q11) was orally administered to the remaining 5 of them, each as a 25 mg/ml soy bean oil solution at a dose of 4.0 ml/kg. At 2 hr from the administration, blood was drawn and centrifuged to give plasma samples. Using HPLC, the concentration of coenzyme Q10 in the obtained plasma was measured. The results are shown in the bar graph of FIG. 2. As is clear from FIG. 2, the concentration of coenzyme Q10 in the plasma was about 3.4 μg/ml resulting from the administration of both reduced coenzyme Q10 and a mixture of reduced coenzyme Q10 and reduced coenzyme Q11.

SMILES: COc1c(O)c(C)c(C/C=C(\C)CC/C=C(\C)CC/C=C(\C)CC/C=C(\C)CC/C=C(\C)CC/C=C(\C)CC/C=C(\C)CC/C=C(\C)CCC=C(C)C)c(O)c1OC [reduced coenzyme Q9]
- concentration of total coenzyme Q in the plasma [1]: increased

SMILES: COc1c(O)c(C)c(C/C=C(\C)CC/C=C(\C)CC/C=C(\C)CC/C=C(\C)CC/C=C(\C)CC/C=C(\C)CC/C=C(\C)CC/C=C(\C)CC/C=C(\C)CCC=C(C)C)c(O)c1OC [reduced coenzyme Q10]
- concentration of coenzyme Q10 in the plasma [2]: about 3.4 μg/ml
